Reference: US20190345443A1, “METHOD FOR THE CULTURING AND DIFFERENTIATION OF CELLS” (FRAUNHOFER-GESELLSCHAFT ZUR FORDERUNG DER ANGEWANDTEN …, priority 2018, published 2019)

System: MDA-MB-231 breast cancer cells
Assay: Overhead culture of MDA-MB-231 breast cancer cells with paclitaxel, relative cell count
Type: cell-based
Conditions: 500 nM paclitaxel, 48 h overhead culture
Method: In the present experiment, MDA-MB-231 breast cancer cells were initially seeded on cell culture substrates according to the present invention, in particular nanoporous glass membranes with average pore diameters of 17 nm, 26 nm, 46 nm, 81 nm, and 124 nm, and on a smooth non-porous glass surface and cultured for 24 h in order to obtain homogeneous cell colonization on all substrates. Subsequently, the samples were inverted and divided into two groups: one control group and one test group, wherein the culturing took place in overhead culture for 48 h. In this context, the control group was cultured in normal culture medium and 500 nM paclitaxel was added to the culture medium of the test group. During culturing for 48 h in overhead culture, a reduction of the relative cell count on the substrates according to the invention by approximately 35-55% in the test group as compared to the control group was observed (FIG. 7).

CC(=O)O[C@H]1C(=O)[C@@]2(C)[C@H]([C@H](OC(=O)c3ccccc3)[C@]3(O)C[C@H](OC(=O)[C@H](O)[C@@H](NC(=O)c4ccccc4)c4ccccc4)C(C)=C1C3(C)C)[C@]1(OC(C)=O)CO[C@@H]1C[C@@H]2O [paclitaxel]
reduction of the relative cell count in the test group as compared to the control group (on nanoporous glass membranes (17, 26, 46, 81, 124 nm)): 35-55%
reduction of the relative cell count in the test group as compared to the control group (on smooth non-porous glass surface): approximately 5%
